This assay concerns the target human MDM2 protein (amino acids 2-188) (Homo sapiens (Human), UniProt Q00987). Nature of the assay: TR-FRET assay, p53-MDM2 Assay 2 (modified). In kind it is binding. Particulars: TR-FRET; 0.1 nM MDM2, 0.1 nM Europium labeled streptavidin, Tecan genios Pro reader; read-out: IC50 p53-MDM2 Assay 2. On the procedure: The inhibition of p53-MDM2 and p53-MDM4 interactions is measured by time resolved fluorescence energy transfer (TR-FRET). Fluorescence energy transfer (or Foerster resonance energy transfer) describes an energy transfer between donor and acceptor fluorescent molecules. For this assay, human MDM2 protein (amino acids 2-188) and human MDM4 protein (amino acids 2-185), tagged with a C-terminal biotin moiety, are used in combination with a Europium labeled streptavidin (Perkin Elmer, Inc., Waltham, Mass., USA) serving as the donor fluorophore. The p53 derived, Cy5 labeled peptide Cy5-[…] (p53 aa18-26) is the energy acceptor. Upon excitation of the donor molecule at 340 nm, binding interaction between MDM2 or MDM4 and the p53 peptide induces energy transfer and enhanced response at the acceptor emission wavelength at 665 nm. […] The ratiometric FRET assay readout is calculated from the raw data of the two distinct fluorescence signals measured in time resolved mode (fluorescence 665 nm/fluorescence 620 nm×1000).
After addition of 1.25 nM MDM2-biotinylated or 2.5 nM MDM4-biotinylated (internal preparations), and 0.625 nM Europium labeled streptavidin (Perkin Elmer), the solution is pre-incubated for 15 minutes at room temperature, then 10 nM Cy5-p53 peptide (internal preparation) is added before an incubation at room temperature for 15 minutes prior to reading the plate. For measurement of samples, a Victor II microplate reader (Perkin Elmer) is used with the following settings: Excitation 340 nm, Emission Donor 620 nm and Emission Acceptor 665 nm. IC50 values are calculated by curve fitting using XLfit. If not specified, reagents are purchased from Sigma-Aldrich Chemie GmBH, Buchs, Switzerland.
Background: In TR-FRET formats the signal depends on donor and acceptor labels being close together.

This is an account of results in US9365576B2, “Pyrrolopyrrolidinone compounds” (Novartis AG, priority 2012, dated 2016).

Structures are written as SMILES.

Sequence of human MDM2 protein (amino acids 2-188) (Q00987 2-188): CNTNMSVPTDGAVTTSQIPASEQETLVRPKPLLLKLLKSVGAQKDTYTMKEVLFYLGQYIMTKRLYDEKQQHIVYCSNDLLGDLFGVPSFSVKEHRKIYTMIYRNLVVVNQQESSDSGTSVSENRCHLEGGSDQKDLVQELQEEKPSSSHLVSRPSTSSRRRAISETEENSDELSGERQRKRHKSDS

Broadly, the IC50 is the concentration at which inhibition is half-maximal. As for `COc1ncc(-c2cc3c(n2C(C)C)[C@H](c2ccc(Cl)cc2)N(c2cc(Cl)ccc2C)C3=O)c(OC)n1` [Example 23, (S)-5-(5-Chloro-2-methyl-phenyl)-6-(4-chloro-phenyl)-2-(2,4-dimethoxy-pyrimidin-5-yl)-1-isopropyl-5,6-dihydro-1H-pyrrolo[3,4-b]pyrrol-4-one], the IC50 came out at 65 pM.
Then `COc1nc(N)ncc1-c1cc2c(n1C(C)C)C(c1ccc(Cl)cc1)N(c1cc(Cl)cnc1OC)C2=O` (stereo not shown) [Example 206, 2-(2-Amino-4-methoxy-pyrimidin-5-yl)-5-(5-chloro-2-methoxy-pyridin-3-yl)-6-(4-chloro-phenyl)-1-isopropyl-5,6-dihydro-1H-pyrrolo[3,4-b]pyrrol-4-one], with 509 pM; and `COc1nc(N)ncc1-c1cc2c(n1C(C)C)C(c1ccc(C#N)cc1)N(c1cc(Cl)ccc1C)C2=O` (stereo not shown) [Example 43], with 401 pM; and `COc1ccccc1-c1cc2c(n1C(C)C)C(c1ccc(Cl)cc1C)N(c1cc(Cl)ccc1C)C2=O` (stereo not shown) [Example 30, 5-(5-Chloro-2-methyl-phenyl)-6-(4-chloro-2-methyl-phenyl)-1-isopropyl-2-(2-methoxy-phenyl)-5,6-dihydro-1H-pyrrolo[3,4-b]pyrrol-4-one], with 376 pM.
Then `COc1nc(N(C)C)ncc1-c1cc2c(n1C(C)C)C(c1ccc(Cl)cc1F)N(c1cc(C)nn1C)C2=O` (stereo not shown) [Example 212, 6-(4-Chloro-2-fluoro-phenyl)-2-(2-dimethylamino-4-methoxy-pyrimidin-5-yl)-5-(2,5-dimethyl-2H-pyrazol-3-yl)-1-isopropyl-5,6-dihydro-1H-pyrrolo[3,4-b]pyrrol-4-one], with 769 pM; and `COc1cn(C)c(=O)cc1-c1cc2c(n1C(C)C)C(c1ccc(Cl)cc1)N(c1c(F)c(C)nn1C)C2=O` (stereo not shown) [Example 208, 6-(4-Chloro-phenyl)-5-(4-fluoro-2,5-dimethyl-2H-pyrazol-3-yl)-1-isopropyl-2-(5-methoxy-1-methyl-2-oxo-1,2-dihydro-pyridin-4-yl)-5,6-dihydro-1H-pyrrolo[3,4-b]pyrrol-4-one], with 861 pM.
As to `COc1ncc(-c2cc3c(n2C(C)C)[C@@H](c2ccc(Cl)cc2)N(c2cc(Cl)ccc2C)C3=O)c(OC)n1` [Example 24, (R)-5-(5-Chloro-2-methyl-phenyl)-6-(4-chloro-phenyl)-2-(2,4-dimethoxy-pyrimidin-5-yl)-1-isopropyl-5,6-dihydro-1H-pyrrolo[3,4-b]pyrrol-4-one], the IC50 stood at 29600 pM.
The result for `CCOC(=O)Cc1cnc(OC)c(-c2cc3c(n2C(C)C)C(c2ccc(C#N)cc2)N(c2cccc(Cl)c2F)C3=O)c1` (stereo not shown) [Example 83, {5-[5-(3-Chloro-2-fluoro-phenyl)-6-(4-cyano-phenyl)-1-isopropyl-4-oxo-1,4,5,6-tetrahydro-pyrrolo[3,4-b]pyrrol-2-yl]-6-methoxy-pyridin-3-yl}-acetic acid ethyl ester] reads 4160 pM; that for `CNC(=O)c1ccc(OC)c(-c2cc3c(n2C(C)C)C(c2ccc(Cl)cc2)N(c2ccc(F)c(Cl)c2)C3=O)c1` (stereo not shown) [Example 53, 3-[5-(3-Chloro-4-fluoro-phenyl)-6-(4-chloro-phenyl)-1-isopropyl-4-oxo-1,4,5,6-tetrahydro-pyrrolo[3,4-b]pyrrol-2-yl]-4-methoxy-N-methyl-benzamide], 323 pM.
As to `COc1ncc(-c2cc3c(n2C(C)C)C(c2ccc(Cl)cc2)N(c2cc(Cl)c[nH]c2=O)C3=O)c(OC)n1` (stereo not shown) [Example 204, 5-(5-Chloro-2-oxo-1,2-dihydro-pyridin-3-yl)-6-(4-chloro-phenyl)-2-(2,4-dimethoxy-pyrimidin-5-yl)-1-isopropyl-5,6-dihydro-1H-pyrrolo[3,4-b]pyrrol-4-one], the IC50 amounted to 195 pM.
The result for `COc1ncc(CC#N)cc1-c1cc2c(n1C(C)C)C(c1ccc(C#N)cc1)N(c1cccc(Cl)c1F)C2=O` (stereo not shown) [Example 88, 4-[5-(3-Chloro-2-fluoro-phenyl)-2-(5-cyanomethyl-2-methoxy-pyridin-3-yl)-1-isopropyl-4-oxo-1,4,5,6-tetrahydro-pyrrolo[3,4-b]pyrrol-6-yl]-benzonitrile] reads 1640 pM; that for `COc1ncc(-c2cc3c(n2C(C)C)C(C)(c2ccc(Cl)cc2)N(c2cc(Cl)c(=O)n(C)c2)C3=O)c(OC)n1` (stereo not shown) [Example 117, 5-(5-Chloro-1-methyl-6-oxo-1,6-dihydro-pyridin-3-yl)-6-(4-chloro-phenyl)-2-(2,4-dimethoxy-pyrimidin-5-yl)-1-isopropyl-6-methyl-5,6-dihydro-1H-pyrrolo[3,4-b]pyrrol-4-one], 208 pM; that for `COc1nc(N(C)C)ncc1-c1cc2c(n1C(C)C)C(c1ccc(Cl)cc1)N(c1cc(Cl)ccc1C)C2=O` (stereo not shown) [Example 27, 5-(5-Chloro-2-methyl-phenyl)-6-(4-chloro-phenyl)-2-(2-dimethylamino-4-methoxy-pyrimidin-5-yl)-1-isopropyl-5,6-dihydro-1H-pyrrolo[3,4-b]pyrrol-4-one], 225 pM.
Take `CNC(=O)c1ccc(OC)c(-c2cc3c(n2C(C)C)[C@@H](c2ccc(Cl)cc2C)N(c2cc(Cl)ccc2C)C3=O)c1` [Example 33, 3-[(R)-5-(5-Chloro-2-methyl-phenyl)-6-(4-chloro-2-methyl-phenyl)-1-isopropyl-4-oxo-1,4,5,6-tetrahydro-pyrrolo[3,4-b]pyrrol-2-yl]-4-methoxy-N-methyl-benzamide]: the IC50 amounted to 44600 pM.
On to `CNc1ncc(-c2cc3c(n2C(C)C)C(c2ccc(Cl)cc2C)N(c2cc(Cl)c(=O)n(C)c2)C3=O)c(OC)n1` (stereo not shown) [Example 151, 5-(5-Chloro-1-methyl-6-oxo-1,6-dihydro-pyridin-3-yl)-6-(4-chloro-2-methyl-phenyl)-1-isopropyl-2-(4-methoxy-2-methylamino-pyrimidin-5-yl)-5,6-dihydro-1H-pyrrolo[3,4-b]pyrrol-4-one], for which the IC50 worked out at 243 pM.
As for `COc1ncc(-c2cc3c(n2C(C)C)C(c2ccc(Cl)c(F)c2)N(c2cc(Cl)c(=O)n(C)c2)C3=O)c(OC)n1` (stereo not shown) [Example 192, 6-(4-Chloro-3-fluoro-phenyl)-5-(5-chloro-1-methyl-6-oxo-1,6-dihydro-pyridin-3-yl)-2-(2,4-dimethoxy-pyrimidin-5-yl)-1-isopropyl-5,6-dihydro-1H-pyrrolo[3,4-b]pyrrol-4-one], the IC50 is 128 pM.
The result for `COc1nc(N(C)C)ncc1-c1cc2c(n1C(C)C)[C@@H](c1ccc(C#N)cc1)N(c1cc(Cl)c(=O)n(C)c1)C2=O` [Example 233, (R)-4-(5-(5-Chloro-1-methyl-6-oxo-1,6-dihydropyridin-3-yl)-2-(2-(dimethylamino)-4-methoxypyrimidin-5-yl)-1-isopropyl-4-oxo-1,4,5,6-tetrahydropyrrolo[3,4-b]pyrrol-6-yl)benzonitrile] reads 60200 pM; that for `COc1nc(N(C)C)ncc1-c1cc2c(n1C(C)C)C(c1ccc(C#N)cc1)N(c1c(F)c(C)nn1C)C2=O` (stereo not shown) [Example 231, 4-(2-(2-(Dimethylamino)-4-methoxypyrimidin-5-yl)-5-(4-fluoro-1,3-dimethyl-1H-pyrazol-5-yl)-1-isopropyl-4-oxo-1,4,5,6-tetrahydropyrrolo[3,4-b]ppyrrol-6-yl)benzonitrile], 224 pM.
As for `CNC(=O)c1ccc(OC)c(-c2cc3c(n2C(C)C)[C@@H](c2ccc(Cl)cc2)N(c2cc(Cl)ccc2C)C3=O)c1` [Example 19, 3-[(R)-5-(5-Chloro-2-methyl-phenyl)-6-(4-chloro-phenyl)-1-isopropyl-4-oxo-1,4,5,6-tetrahydro-pyrrolo[3,4-b]pyrrol-2-yl]-4-methoxy-N-methyl-benzamide], the IC50 stood at 181000 pM.
